Measurements published in ChEMBL document CHEMBL1201862, “PubChem BioAssay data set” (2004).
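Following 48 hours of exposure in 96-well plates, responses at five concentrations were used to interpolate endpoints linearly. Abbreviation: GI50, concentration required for 50% inhibition of growth.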 Active and inactive are the calls of the source. Cut-off read from the data, not from the text of the source: active = GI50 up to about 1.1 µM and inactive = higher.

Experiments:
Assay in all cases: NCI-60 cell line screen, 48 h
786-0 = system: 786-0
A549 = system: A549
EKVX = system: EKVX
HCC 2998 = system: HCC 2998
HOP-92 = system: HOP-92
IGROV-1 = system: IGROV-1
K562 = system: K562
Malme-3M = system: Malme-3M
NCI-H226 = system: NCI-H226
OVCAR-5 = system: OVCAR-5
RPMI-8226 = system: RPMI-8226
SF-268 = system: SF-268
SK-MEL-28 = system: SK-MEL-28
SK-MEL-5 = system: SK-MEL-5
SNB-75 = system: SNB-75
TK-10 = system: TK-10
SR = system: SR

Measured: GI50

CCCCCCCCCCn1cccc1/C=C/c1ccc(/C=C/c2cccn2CCCCCCCCCC)cc1
inactive: 786-0 > 100 µM | A549 > 100 µM | EKVX > 100 µM | HCC 2998 > 100 µM | HOP-92 > 100 µM | IGROV-1 > 100 µM | K562 > 100 µM | Malme-3M > 100 µM | NCI-H226 > 100 µM | OVCAR-5 > 100 µM | RPMI-8226 > 100 µM | SF-268 > 100 µM | SK-MEL-28 > 100 µM | SK-MEL-5 > 100 µM | SNB-75 > 100 µM | TK-10 > 100 µM

Cc1cc(C)nc(NS(=O)(=O)c2ccc(Nc3c4ccccc4nc4c(C(=O)Nc5ccc(S(=O)(=O)Nc6cc(C)on6)cc5)ccc(Cl)c34)cc2)n1
inactive: 786-0 17.9 µM | EKVX 25.5 µM | HCC 2998 17.3 µM | K562 27.8 µM | Malme-3M 28.1 µM | OVCAR-5 18.7 µM | RPMI-8226 20.6 µM | SF-268 27.2 µM | SK-MEL-28 27.7 µM | SNB-75 31.7 µM | SR 21.1 µM | TK-10 76 µM

O=C(O)CCNCCCCNCCC(=O)O
inactive: 786-0 > 100 µM | A549 > 100 µM | EKVX > 100 µM | HCC 2998 > 100 µM | HOP-92 > 100 µM | IGROV-1 > 100 µM | K562 > 100 µM | Malme-3M > 100 µM | NCI-H226 > 100 µM | OVCAR-5 > 100 µM | RPMI-8226 > 100 µM | SF-268 > 100 µM | SK-MEL-28 > 100 µM | SK-MEL-5 > 100 µM | SNB-75 > 100 µM | TK-10 > 100 µM

CC1=Nn2c(nnc2-c2ccc(N)cc2)NC(C)(C)C1
inactive: 786-0 > 100 µM | A549 > 100 µM | EKVX > 100 µM | HCC 2998 > 100 µM | HOP-92 > 100 µM | IGROV-1 > 100 µM | K562 > 100 µM | Malme-3M > 100 µM | NCI-H226 > 100 µM | OVCAR-5 > 100 µM | RPMI-8226 > 100 µM | SF-268 > 100 µM | SK-MEL-28 > 100 µM | SK-MEL-5 > 100 µM | TK-10 > 100 µM

COC12OCCN(C)C1=CC(=O)C1=NNC(C)C12 (stereo not given)
inactive: 786-0 > 100 µM | A549 > 100 µM | EKVX > 100 µM | HCC 2998 > 100 µM | HOP-92 > 100 µM | IGROV-1 > 100 µM | K562 > 100 µM | NCI-H226 > 100 µM | RPMI-8226 > 100 µM | SK-MEL-28 > 100 µM | SK-MEL-5 > 100 µM | SNB-75 > 100 µM | TK-10 > 100 µM

CCc1ccc(Cc2ccc(CC)c(NC(=O)C(=O)Cc3nc4ccccc4nc3C)c2CC)c(CC)c1NC(=O)C(=O)Cc1nc2ccccc2nc1C
inactive: 786-0 > 100 µM | A549 > 100 µM | EKVX 45.9 µM | HCC 2998 62.5 µM | HOP-92 4.02 µM | IGROV-1 > 100 µM | K562 > 100 µM | Malme-3M 81.3 µM | OVCAR-5 > 100 µM | RPMI-8226 > 100 µM | SF-268 33.3 µM | SK-MEL-28 66.7 µM | SK-MEL-5 > 100 µM | SNB-75 9.77 µM | TK-10 > 100 µM

COc1ccc(C=C(c2ccc(OCc3ccccc3)cc2)c2ccc(OCc3ccccc3)cc2)cc1
inactive: 786-0 > 100 µM | A549 > 100 µM | EKVX > 100 µM | HCC 2998 > 100 µM | IGROV-1 > 100 µM | Malme-3M > 100 µM | NCI-H226 > 100 µM | OVCAR-5 > 100 µM | RPMI-8226 > 100 µM | SF-268 > 100 µM | SK-MEL-28 > 100 µM | SK-MEL-5 > 100 µM | SNB-75 > 100 µM | SR > 100 µM | TK-10 > 100 µM

N#C/C(=C\c1cc(O)ccc1O)C(N)=O
inactive: 786-0 29.4 µM | A549 78.5 µM | EKVX 33.1 µM | HCC 2998 67.3 µM | HOP-92 34.4 µM | IGROV-1 99.5 µM | K562 27 µM | Malme-3M 74 µM | NCI-H226 34 µM | OVCAR-5 > 100 µM | RPMI-8226 27.2 µM | SF-268 35.1 µM | SK-MEL-28 37.1 µM | SNB-75 14.6 µM | TK-10 50.8 µM

NC(CCCNCc1ccccc1)C(=O)O (stereo not given)
inactive: 786-0 > 100 µM | A549 > 100 µM | EKVX > 100 µM | HOP-92 > 100 µM | IGROV-1 > 100 µM | K562 > 100 µM | Malme-3M > 100 µM | NCI-H226 > 100 µM | RPMI-8226 > 100 µM | SF-268 > 100 µM | SK-MEL-28 > 100 µM | SK-MEL-5 > 100 µM | SNB-75 > 100 µM | TK-10 > 100 µM

Cc1c2ccncc2c(C)c2c1[nH]c1ccc(OC(C)(C)C)cc12
inactive: 786-0 1.53 µM | A549 3.15 µM | EKVX 11.1 µM | HCC 2998 1.85 µM | HOP-92 9.82 µM | IGROV-1 4.7 µM | K562 2.08 µM | Malme-3M 1.77 µM | NCI-H226 3.17 µM | OVCAR-5 11.7 µM | RPMI-8226 2.08 µM | SF-268 5.12 µM | SK-MEL-28 1.76 µM | SK-MEL-5 2.14 µM | SNB-75 1.85 µM | TK-10 4.88 µM

CC(=O)OC1CC2C(C)(C)C(=O)C=C[C@]2(C)C2CCC3(C)C(=CCC3[C@H](CO)C[C@H](O)C(=O)C(C)(C)O)[C@]12C (stereo not given in full)
inactive: 786-0 19.7 µM | A549 24.2 µM | EKVX 20.3 µM | HCC 2998 18.1 µM | IGROV-1 21.5 µM | K562 27 µM | Malme-3M 14.7 µM | NCI-H226 20.6 µM | OVCAR-5 31 µM | RPMI-8226 22.3 µM | SF-268 25.9 µM | SK-MEL-28 19.4 µM | SK-MEL-5 19 µM | SNB-75 24.3 µM | SR 25.4 µM | TK-10 26.5 µM

COC(=O)C1=C(C(=O)OC)C2(CCCCCC2=O)OC1=O (stereo not given)
inactive: 786-0 > 100 µM | A549 > 100 µM | EKVX > 100 µM | HCC 2998 > 100 µM | HOP-92 > 100 µM | IGROV-1 > 100 µM | K562 > 100 µM | Malme-3M > 100 µM | NCI-H226 > 100 µM | OVCAR-5 > 100 µM | RPMI-8226 > 100 µM | SF-268 > 100 µM | SK-MEL-28 > 100 µM | SK-MEL-5 > 100 µM | SNB-75 > 100 µM | TK-10 > 100 µM

O=C(O)c1cc(S(=O)(=O)N/N=C\c2c3ccccc3[n+]([O-])c3ccccc23)ccc1O
inactive: 786-0 11.7 µM | A549 22.7 µM | EKVX 44.4 µM | HCC 2998 6.97 µM | HOP-92 9.64 µM | IGROV-1 22.1 µM | K562 8.61 µM | Malme-3M 17.7 µM | NCI-H226 26.7 µM | OVCAR-5 30.7 µM | RPMI-8226 7.48 µM | SF-268 11.7 µM | SK-MEL-28 12.3 µM | SK-MEL-5 11.7 µM | SNB-75 2.58 µM | TK-10 17.8 µM
